Results reported in the supplement of paper PMC10307832.

Key:
Assay in all cases: relative viability (nuclei count vs DMSO), 5 days (fraction); higher = more cells survive
201T = tested on: 201T
Procedure, shortened: (§1)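 Dosing by pin tool came one day after lung cancer cell lines were seeded in 1536-well plates, using either one drug or a fixed anchor-drug dose plus five library-drug doses (not always all listed) in √10 steps. After 5 days, nuclei were counted on 4× images. Relative viability is treated-well nuclei count divided by vehicle-well nuclei count, and values are medians of duplicate plates.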

COR-L23 = tested on: COR-L23
Procedure, shortened: as §1

EKVX = tested on: EKVX
Procedure, shortened: as §1

EPLC-272H = tested on: EPLC-272H
Procedure, shortened: as §1

HCC-44 = tested on: HCC-44
Procedure, shortened: as §1

LOU-NH91 = tested on: LOU-NH91
Procedure, shortened: as §1

NCI-H1650 = tested on: NCI-H1650
Procedure, shortened: as §1

NCI-H1734 = tested on: NCI-H1734
Procedure, shortened: as §1

NCI-H1793 = tested on: NCI-H1793
Procedure, shortened: as §1

NCI-H1993 = tested on: NCI-H1993
Procedure, shortened: as §1

NCI-H2023 = tested on: NCI-H2023
Procedure, shortened: as §1

NCI-H2085 = tested on: NCI-H2085
Procedure, shortened: as §1

NCI-H2170 = tested on: NCI-H2170
Procedure, shortened: as §1

NCI-H2347 = tested on: NCI-H2347
Procedure, shortened: as §1

NCI-H2405 = tested on: NCI-H2405
Procedure, shortened: as §1

NCI-H3122 = tested on: NCI-H3122
Procedure, shortened: as §1

NCI-H441 = tested on: NCI-H441
Procedure, shortened: as §1

NCI-H520 = tested on: NCI-H520
Procedure, shortened: as §1

NCI-H647 = tested on: NCI-H647
Procedure, shortened: as §1

PC-14 = tested on: PC-14
Procedure, shortened: as §1

RERF-LC-KJ = tested on: RERF-LC-KJ
Procedure, shortened: as §1

For `CC(C)Oc1cc(Nc2nc(N[C@@H](C)c3ccc(F)cn3)ncc2Cl)n[nH]1` [AZ23] + CC1(C)CCC(c2ccc(Cl)cc2)=C(CN2CCN(c3ccc(C(=O)NS(=O)(=O)c4ccc(N[C@H](CCN5CCOCC5)CSc5ccccc5)c(S(=O)(=O)C(F)(F)F)c4)cc3)CC2)C1 [Navitoclax] (partner 0.5 µM), the relative viability (201T; first compound 0.01 µM) was 1.23, the relative viability (201T; first compound 0.03162 µM) was 1.22 and the relative viability (201T; first compound 0.3162 µM) was 1.17. It also gave a relative viability (COR-L23; first compound 0.01 µM) of 0.839, a relative viability (COR-L23; first compound 0.03162 µM) of 1.11 and a relative viability (COR-L23; first compound 0.3162 µM) of 1.05. For the same compound, the relative viability (EKVX; first compound 0.01 µM) was 1.12, the relative viability (EKVX; first compound 0.03162 µM) was 1.29 and the relative viability (EKVX; first compound 0.3162 µM) was 1.02. For the same compound, the relative viability (EPLC-272H; first compound 0.01 µM) was 1.3, the relative viability (EPLC-272H; first compound 0.03162 µM) was 1.16 and the relative viability (HCC-44; first compound 0.01 µM) was 1.31. For the same compound, the relative viability (HCC-44; first compound 0.03162 µM) was 1, the relative viability (HCC-44; first compound 0.3162 µM) was 0.927 and the relative viability (LOU-NH91; first compound 0.01 µM) was 0.619. For the same compound, the relative viability (LOU-NH91; first compound 0.03162 µM) was 0.744, the relative viability (LOU-NH91; first compound 0.3162 µM) was 0.746 and the relative viability (NCI-H1650; first compound 0.01 µM) was 0.925. For the same compound, the relative viability (NCI-H1650; first compound 0.03162 µM) was 1.28, the relative viability (NCI-H1650; first compound 0.3162 µM) was 1.05 and the relative viability (NCI-H1734; first compound 0.01 µM) was 0.905. The relative viability (NCI-H1734; first compound 0.03162 µM) was 0.973, the relative viability (NCI-H1734; first compound 0.3162 µM) was 0.721 and the relative viability (NCI-H1793; first compound 0.01 µM) was 0.425. For the same compound, the relative viability (NCI-H1793; first compound 0.03162 µM) was 0.302, the relative viability (NCI-H1793; first compound 0.3162 µM) was 0.341 and the relative viability (NCI-H1993; first compound 0.01 µM) was 0.688. The relative viability (NCI-H1993; first compound 0.3162 µM) was 0.916, the relative viability (NCI-H2023; first compound 0.03162 µM) was 1.1 and the relative viability (NCI-H2023; first compound 0.3162 µM) was 1.05. For the same compound, the relative viability (NCI-H2085; first compound 0.01 µM) was 1.31, the relative viability (NCI-H2085; first compound 0.03162 µM) was 1.27 and the relative viability (NCI-H2085; first compound 0.3162 µM) was 1.11. The relative viability (NCI-H2170; first compound 0.01 µM) was 0.59, the relative viability (NCI-H2170; first compound 0.03162 µM) was 0.687 and the relative viability (NCI-H2170; first compound 0.3162 µM) was 0.589. The relative viability (NCI-H2347; first compound 0.01 µM) was 0.858, the relative viability (NCI-H2347; first compound 0.03162 µM) was 0.755 and the relative viability (NCI-H2347; first compound 0.3162 µM) was 0.818. The relative viability (NCI-H2405; first compound 0.01 µM) was 0.8, the relative viability (NCI-H2405; first compound 0.03162 µM) was 0.915 and the relative viability (NCI-H2405; first compound 0.3162 µM) was 0.781. For the same compound, the relative viability (NCI-H3122; first compound 0.01 µM) was 1.11, the relative viability (NCI-H3122; first compound 0.03162 µM) was 1.02 and the relative viability (NCI-H3122; first compound 0.3162 µM) was 1.08. It also gave a relative viability (NCI-H441; first compound 0.01 µM) of 0.518, a relative viability (NCI-H441; first compound 0.03162 µM) of 0.755 and a relative viability (NCI-H441; first compound 0.3162 µM) of 0.769. It also gave a relative viability (NCI-H520; first compound 0.01 µM) of 0.972, a relative viability (NCI-H520; first compound 0.03162 µM) of 1.31 and a relative viability (NCI-H520; first compound 0.3162 µM) of 1.08. It also gave a relative viability (NCI-H647; first compound 0.01 µM) of 1.46, a relative viability (NCI-H647; first compound 0.03162 µM) of 1.51 and a relative viability (NCI-H647; first compound 0.3162 µM) of 1.24. The relative viability (PC-14; first compound 0.01 µM) was 0.989, the relative viability (PC-14; first compound 0.03162 µM) was 1.21 and the relative viability (PC-14; first compound 0.3162 µM) was 1.1. The relative viability (RERF-LC-KJ; first compound 0.01 µM) was 0.719, the relative viability (RERF-LC-KJ; first compound 0.03162 µM) was 1.15 and the relative viability (RERF-LC-KJ; first compound 0.3162 µM) was 0.879.
